From patent US5840684A, “Glycopeptide antibiotic derivatives” (Eli Lilly and Company, priority 1995, dated 1998)
In brackets after ≈: the same amount, converted by molar mass.

Columns and labels:
[1] = system: Staphylococcus aureus S13E; type: cell-based
Description: (§1) The MIC's were determined using a standard broth micro-dilution assay.

[2] = system: Staphylococcus aureus SA1199B; type: cell-based
Description: as §1

[3] = system: Entercoccus faecium 180-1; test: broth micro-dilution MIC; type: cell-based
Description: as §1

[4] = system: Staphylococcus aureus 446; test: broth micro-dilution MIC; type: cell-based
Description: as §1

[5] = system: Staphylococcus aureus 447; test: broth micro-dilution MIC; type: cell-based
Description: as §1

[6] = system: Staphylococcus aureus 489; test: broth micro-dilution MIC; type: cell-based
Description: as §1

[7] = system: Staphylococcus aureus 491; test: broth micro-dilution MIC; type: cell-based
Description: as §1

[8] = system: Staphylococcus aureus SA1199; test: broth micro-dilution MIC; type: cell-based
Description: as §1

[9] = system: Staphylococcus aureus X400; test: broth micro-dilution MIC; type: cell-based
Description: as §1

[10] = system: Staphylococcus aureus X778; test: broth micro-dilution MIC; type: cell-based
Description: as §1

[11] = system: Streptococcus pyogenes C203; test: broth micro-dilution MIC; type: cell-based
Description: as §1

[12] = system: Entercoccus faecium 180; test: broth micro-dilution MIC; type: cell-based; conditions: Entercoccus faecium 180
Description: (§2) The formula I compounds have in vitro and in vivo activity against Gram-positive pathogenic bacteria. The MIC's were determined using a standard broth micro-dilution assay.

[13] = system: Entercoccus faecium 2041; test: broth micro-dilution MIC; type: cell-based; conditions: Entercoccus faecium 2041
Description: as §2

[14] = system: Enterococcus gallinarum 245; test: broth micro-dilution MIC; type: cell-based; conditions: Enterococcus gallinarum 245
Description: as §2

[15] = system: Staphylococcus epidermidis 270; test: broth micro-dilution MIC; type: cell-based
Description: as §2

[16] = system: Staphylococcus haemolyticus 105; test: broth micro-dilution MIC; type: cell-based
Description: as §2

[17] = system: Staphylococcus haemolyticus 415; test: broth micro-dilution MIC; type: cell-based
Description: as §2

[18] = system: Streptococcus pneumoniae P1; test: broth micro-dilution MIC; type: cell-based
Description: as §2

[19] = system: vancomycin-resistant enterococci; test: broth micro-dilution, mean geometric MIC; type: cell-based, Enterococcus faecium and Enterococcus faecalis; conditions: enterococci, 24-hour incubation
[20] = system: vancomycin-susceptible enterococci; test: broth micro-dilution, mean geometric MIC; type: cell-based, Enterococcus faecium and Enterococcus faecalis; conditions: enterococci, 24-hour incubation
[21] = system: Entercoccus faecium 276; test: broth micro-dilution MIC; type: cell-based
Description: as §1

[22] = system: Staphylococcus aureus SA1199A; test: broth micro-dilution MIC; type: cell-based
Description: as §1

| SMILES | MIC [1] [mg/L] | MIC [2] [mg/L] | MIC [3] [mg/L] | MIC [4] [mg/L] | MIC [5] [mg/L] | MIC [6] [mg/L] | MIC [7] [mg/L] | MIC [8] [mg/L] | MIC [9] [mg/L] | MIC [10] [mg/L] | MIC [11] [mg/L] | MIC [13] [mg/L] | MIC [14] [mg/L] | MIC [15] [mg/L] | MIC [16] [mg/L] | MIC [17] [mg/L] | MIC [18] [mg/L] | mean geometric MIC, Vancomycin Resistant Strains [19] [mg/L] | mean geometric MIC, Vancomycin Sensitive Strains [20] [mg/L] | MIC [21] [mg/L] | further results |
| --- | --- | --- | --- | --- | --- | --- | --- | --- | --- | --- | --- | --- | --- | --- | --- | --- | --- | --- | --- | --- | --- |
| CNC(CC(C)C)C(=O)NC1C(=O)NC(CC(N)=O)C(=O)NC2C(=O)NC3C(=O)NC(C(=O)NC(C(=O)O)c4cc(O)cc(O)c4-c4cc3ccc4O)C(OC3CC(C)(N)C(O)C(C)O3)c3ccc(c(Cl)c3)Oc3cc2cc(c3OC2OC(CO)C(O)C(O)C2OC2CC(C)(NCc3ccc(-c4ccc(C)cc4)c(C)c3)C(O)C(C)O2)Oc2ccc(cc2Cl)C1O (stereo not drawn) [Compound 225] | 1 (≈ 0.56 µM) | 2 (≈ 1.12 µM) | ≤ 0.06 | 1 (≈ 0.56 µM) | 1 (≈ 0.56 µM) | 2 (≈ 1.12 µM) | 1 (≈ 0.56 µM) | 1 (≈ 0.56 µM) | 1 (≈ 0.56 µM) | 0.5 (≈ 0.28 µM) | ≤ 0.06 | 0.125 (≈ 0.07 µM) | 4 (≈ 2.24 µM) | 1 (≈ 0.56 µM) | 0.5 (≈ 0.28 µM) | 4 (≈ 2.24 µM) | ≤ 0.06 | 0.63 | 0.072 | – | MIC [12]: ≤ 0.06 mg/L |
| CNC(CC(C)C)C(=O)NC1C(=O)NC(CC(N)=O)C(=O)NC2C(=O)NC3C(=O)NC(C(=O)NC(C(=O)O)c4cc(O)cc(O)c4-c4cc3ccc4O)C(OC3CC(C)(N)C(O)C(C)O3)c3ccc(c(Cl)c3)Oc3cc2cc(c3OC2OC(CO)C(O)C(O)C2OC2CC(C)(NCc3ccc(OCCC4CCCCC4)cc3)C(O)C(C)O2)Oc2ccc(cc2Cl)C1O (stereo not drawn) [Compound 127] | 2 (≈ 1.11 µM) | 2 (≈ 1.11 µM) | ≤ 0.06 | 1 (≈ 0.553 µM) | 2 (≈ 1.11 µM) | 2 (≈ 1.11 µM) | 1 (≈ 0.553 µM) | 2 (≈ 1.11 µM) | 2 (≈ 1.11 µM) | 1 (≈ 0.553 µM) | ≤ 0.06 | ≤ 0.06 | 4 (≈ 2.21 µM) | ≤ 0.06 | 2 (≈ 1.11 µM) | 4 (≈ 2.21 µM) | ≤ 0.06 | 1.2 | 0.33 | ≤ 0.06 | MIC [12]: ≤ 0.06 mg/L |
| CCCCCCCCC#CCCCCCCNC1(C)CC(OC2C(Oc3c4cc5cc3Oc3ccc(cc3Cl)C(OC3CC(C)(N)C(O)C(C)O3)C3NC(=O)C(NC(=O)C5NC(=O)C(CC(N)=O)NC(=O)C(NC(=O)C(CC(C)C)NC)C(O)c5ccc(c(Cl)c5)O4)c4ccc(O)c(c4)-c4c(O)cc(O)cc4C(C(=O)O)NC3=O)OC(CO)C(O)C2O)OC(C)C1O (stereo not drawn) [Compound 207] | 8 (≈ 4.41 µM) | 16 (≈ 8.83 µM) | ≤ 0.06 | 8 (≈ 4.41 µM) | 8 (≈ 4.41 µM) | 4 (≈ 2.21 µM) | 1 (≈ 0.552 µM) | 8 (≈ 4.41 µM) | 8 (≈ 4.41 µM) | 8 (≈ 4.41 µM) | – | 0.125 (≈ 0.069 µM) | 1 (≈ 0.552 µM) | 8 (≈ 4.41 µM) | 8 (≈ 4.41 µM) | 1 (≈ 0.552 µM) | ≤ 0.06 | 1.2 | 0.50 | 0.25 (≈ 0.138 µM) | MIC [22]: 4 mg/L (≈ 2.21 µM); MIC [12]: 1 mg/L (≈ 0.552 µM) |
| CNC(CC(C)C)C(=O)NC1C(=O)NC(CC(N)=O)C(=O)NC2C(=O)NC3C(=O)NC(C(=O)NC(C(=O)O)c4cc(O)cc(O)c4-c4cc3ccc4O)C(OC3CC(C)(N)C(O)C(C)O3)c3ccc(c(Cl)c3)Oc3cc2cc(c3OC2OC(CO)C(O)C(O)C2OC2CC(C)(NCc3ccc(OCCOC(C)(C)C)cc3)C(O)C(C)O2)Oc2ccc(cc2Cl)C1O (stereo not drawn) [Compound 154] | 0.25 (≈ 0.139 µM) | 0.25 (≈ 0.139 µM) | ≤ 0.06 | 2 (≈ 1.11 µM) | 2 (≈ 1.11 µM) | 1 (≈ 0.556 µM) | 0.5 (≈ 0.278 µM) | 2 (≈ 1.11 µM) | 2 (≈ 1.11 µM) | 0.5 (≈ 0.278 µM) | ≤ 0.06 | – | 4 (≈ 2.22 µM) | 0.5 (≈ 0.278 µM) | 4 (≈ 2.22 µM) | 4 (≈ 2.22 µM) | ≤ 0.06 | 2.8 | 0.072 | 0.5 (≈ 0.278 µM) | MIC [12]: 1 mg/L (≈ 0.556 µM) |
| CNC(CC(C)C)C(=O)NC1C(=O)NC(CC(N)=O)C(=O)NC2C(=O)NC3C(=O)NC(C(=O)NC(C(=O)O)c4cc(O)cc(O)c4-c4cc3ccc4O)C(OC3CC(C)(N)C(O)C(C)O3)c3ccc(c(Cl)c3)Oc3cc2cc(c3OC2OC(CO)C(O)C(O)C2OC2CC(C)(NCc3ccc(OC)c4ccccc34)C(O)C(C)O2)Oc2ccc(cc2Cl)C1O (stereo not drawn) [Compound 15] | 0.5 (≈ 0.284 µM) | 0.25 (≈ 0.142 µM) | ≤ 0.06 | 1 (≈ 0.567 µM) | 2 (≈ 1.13 µM) | ≤ 0.06 | 0.25 (≈ 0.142 µM) | 0.25 (≈ 0.142 µM) | 0.25 (≈ 0.142 µM) | 0.25 (≈ 0.142 µM) | ≤ 0.06 | ≤ 0.06 | ≤ 0.06 | 1 (≈ 0.567 µM) | 0.5 (≈ 0.284 µM) | 2 (≈ 1.13 µM) | ≤ 0.06 | 6.7 | 0.14 | ≤ 0.06 | MIC [12]: 0.5 mg/L (≈ 0.284 µM) |
| CNC(CC(C)C)C(=O)NC1C(=O)NC(CC(N)=O)C(=O)NC2C(=O)NC3C(=O)NC(C(=O)NC(C(=O)O)c4cc(O)cc(O)c4-c4cc3ccc4O)C(OC3CC(C)(N)C(O)C(C)O3)c3ccc(c(Cl)c3)Oc3cc2cc(c3OC2OC(CO)C(O)C(O)C2OC2CC(C)(NCc3ccc4c(c3O)Cc3ccccc3-4)C(O)C(C)O2)Oc2ccc(cc2Cl)C1O (stereo not drawn) [Compound 103] | 1 (≈ 0.56 µM) | 2 (≈ 1.12 µM) | ≤ 0.06 | 0.5 (≈ 0.28 µM) | 1 (≈ 0.56 µM) | ≤ 0.06 | 1 (≈ 0.56 µM) | 1 (≈ 0.56 µM) | ≤ 0.06 | 0.5 (≈ 0.28 µM) | ≤ 0.06 | ≤ 0.06 | 8 (≈ 4.48 µM) | 1 (≈ 0.56 µM) | 4 (≈ 2.24 µM) | 8 (≈ 4.48 µM) | ≤ 0.06 | 4.0 | 0.33 | 0.25 (≈ 0.14 µM) | MIC [22]: ≤ 0.06 mg/L |
| CNC(CC(C)C)C(=O)NC1C(=O)NC(CC(N)=O)C(=O)NC2C(=O)NC3C(=O)NC(C(=O)NC(C(=O)O)c4cc(O)cc(O)c4-c4cc3ccc4O)C(OC3CC(C)(N)C(O)C(C)O3)c3ccc(c(Cl)c3)Oc3cc2cc(c3OC2OC(CO)C(O)C(O)C2OC2CC(C)(NCc3cccc(Oc4ccc(C(F)(F)F)cc4)c3)C(O)C(C)O2)Oc2ccc(cc2Cl)C1O (stereo not drawn) [Compound 132] | 2 (≈ 1.09 µM) | 2 (≈ 1.09 µM) | ≤ 0.06 | 1 (≈ 0.543 µM) | 2 (≈ 1.09 µM) | 1 (≈ 0.543 µM) | 0.5 (≈ 0.271 µM) | 1 (≈ 0.543 µM) | 1 (≈ 0.543 µM) | 2 (≈ 1.09 µM) | ≤ 0.06 | 1 (≈ 0.543 µM) | 2 (≈ 1.09 µM) | 2 (≈ 1.09 µM) | 1 (≈ 0.543 µM) | 2 (≈ 1.09 µM) | ≤ 0.06 | 1.2 | 0.048 | 1 (≈ 0.543 µM) | – |
| CNC(CC(C)C)C(=O)NC1C(=O)NC(CC(N)=O)C(=O)NC2C(=O)NC3C(=O)NC(C(=O)NC(C(=O)O)c4cc(O)cc(O)c4-c4cc3ccc4O)C(OC3CC(C)(N)C(O)C(C)O3)c3ccc(c(Cl)c3)Oc3cc2cc(c3OC2OC(CO)C(O)C(O)C2OC2CC(C)(NCc3cccc(OCc4ccc5ccccc5n4)c3)C(O)C(C)O2)Oc2ccc(cc2Cl)C1O (stereo not drawn) [Compound 125] | 1 (≈ 0.544 µM) | 2 (≈ 1.09 µM) | ≤ 0.06 | 4 (≈ 2.17 µM) | 2 (≈ 1.09 µM) | 2 (≈ 1.09 µM) | 1 (≈ 0.544 µM) | 0.5 (≈ 0.272 µM) | 1 (≈ 0.544 µM) | 2 (≈ 1.09 µM) | ≤ 0.06 | ≤ 0.06 | 12 (≈ 6.52 µM) | 1 (≈ 0.544 µM) | 4 (≈ 2.17 µM) | 2 (≈ 1.09 µM) | ≤ 0.06 | 3.4 | 0.14 | 2 (≈ 1.09 µM) | MIC [12]: 1 mg/L (≈ 0.544 µM) |
